Experimental data published in patent EP4417602A1, “SUBSTITUTED PYRAZOLE CARBOXAMIDES, SALTS THEREOF AND THEIR USE AS HERBICIDALLY ACTIVE SUBSTANCES” (Bayer AG, priority 2023, dated 2024).

Assays:
ECHCG = assay: A. Herbicidal pre-emergence action on harmful plants (Tables A); type: in vivo, Echinochloa crus-galli; conditions: visual grading after ca. 3 weeks vs untreated controls, 100% = plants have died off, 0% = as control plants
Description: (§1) Seeds of mono- and dicotyledonous weed plants were sown in plastic pots (double sowings with one species of mono- and one species of dicotyledonous weed plants per pot), in sandy loam, and covered with soil. The compounds according to the invention, formulated in the form of wettable powders (WP) or as emulsifiable concentrates (EC), were applied to the surface of the covering soil as aqueous suspension or emulsion, with the addition of 0.5% of an additive, at an application rate of 6001 of water per hectare (converted). Following treatment, the pots were placed in a greenhouse and kept under optimum growth conditions for the test plants. The visual grading of the damage to the test plants was carried out after ca. 3 weeks in comparison to untreated controls (herbicidal effect in percent (%): 100% effect = plants have died off, 0% effect = as control plants). Tables A1 to A12, below, show the effects of selected compounds of the general formula (I) according to table 1 on various harmful plants and an application rate corresponding to 1280 g/ha or below obtained by the experimental procedure mentioned above. Table A1: pre-emergence activity at 1280g/ha against ABUTH in %

DIGSA = assay: as above; type: in vivo, Digitaria sanguinalis
Description: as §1

SETVI = assay: as above; type: in vivo, Setaria viridis; conditions: visual grading after ca. 3 weeks vs untreated controls, 100% = plants have died off, 0% = as control plants
Description: as §1

POAAN [1] = assay: as above; type: in vivo, Poa annua
Description: as §1

MATIN = assay: as above; type: in vivo, Matricaria inodora; conditions: visual grading after ca. 3 weeks vs untreated controls, 100% = plants have died off, 0% = as control plants
Description: as §1

LOLRI = assay: as above; type: in vivo, Lolium rigidum; conditions: visual grading after ca. 3 weeks vs untreated controls, 100% = plants have died off, 0% = as control plants
Description: as §1

STEME = assay: as above; type: in vivo, Stellaria media; conditions: application rate 1280 g/ha; visual grading after ca. 3 weeks vs untreated controls; 100% = plants have died off, 0% = as control plants
Description: as §1

POAAN [2] = assay: B. Herbicidal post-emergence action on harmful plants (Tables B); type: in vivo, Poa annua
Protocol: Seeds of mono- and dicotyledonous weed plants were placed in plastic pots in sandy loam soil (doubly sown with in each case one species of mono- or dicotyledonous weed plants per pot), covered with soil and cultivated in a greenhouse under controlled growth conditions. 2 to 3 weeks after sowing, the test plants were treated at the one-leaf stage. The compounds of the invention, formulated in the form of wettable powders (WP) or as emulsion concentrates (EC), were applied onto the green parts of the plants as aqueous suspension or emulsion with addition of 0.5% additive at a water application rate of 600 liters per hectare (converted). After the test plants had been kept in the greenhouse under optimum growth conditions for about 3 weeks, the activity of the preparations was rated visually in comparison to untreated controls. For example, 100% activity = the plants have died, 0% activity = like control plants. Tables B1 to B12, below, show the effects of selected compounds of the general formula (I) according to table 1 on various harmful plants and an application rate corresponding to 1280 g/ha or below obtained by the experimental procedure mentioned above. Table B1a: post-emergence activity at 1280g/ha against ABUTH in %

ALOMY = assay: A. Herbicidal pre-emergence action on harmful plants (Tables A); type: in vivo, Alopecurus myosuroides; conditions: application rate 1280 g/ha; Table A9a
Description: as §1

[3] = application rate 1280 g/ha, Table A12a
[4] = application rate 1280 g/ha, visual grading after ca. 3 weeks vs untreated controls, 100% = plants have died off, 0% = as control plants
[5] = application rate 320 g/ha, Table A12b
[6] = application rate 80 g/ha, Table A7c
[7] = application rate 320 g/ha, Table A7b
[8] = application rate 1280 g/ha, Table B7a

Row | SMILES | pre-emergence activity against ECHCG (ECHCG; application rate 1280 g/ha) [%] | pre-emergence activity against DIGSA (DIGSA; [3]) [%] | pre-emergence activity against SETVI (SETVI; application rate 1280 g/ha) [%] | pre-emergence activity against POAAN (POAAN [1]; [4]) [%] | pre-emergence activity against MATIN (MATIN; application rate 1280 g/ha) [%] | pre-emergence activity against LOLRI (LOLRI; application rate 1280 g/ha) [%] | pre-emergence activity against ECHCG (ECHCG; application rate 320 g/ha) [%] | pre-emergence activity against DIGSA (DIGSA; [5]) [%] | pre-emergence activity against STEME (STEME) [%] | pre-emergence activity against POAAN (POAAN [1]; [6]) [%] | pre-emergence activity against POAAN (POAAN [1]; [7]) [%] | post-emergence activity against POAAN (POAAN [2]; [8]) [%] | post-emergence activity against POAAN (POAAN [2]; application rate 320 g/ha, Table B7b) [%] | pre-emergence activity against ALOMY (ALOMY) [%] | pre-emergence activity against SETVI (SETVI; application rate 80 g/ha) [%] | pre-emergence activity against SETVI (SETVI; application rate 320 g/ha) [%] | pre-emergence activity against LOLRI (LOLRI; application rate 320 g/ha) [%] | pre-emergence activity against MATIN (MATIN; application rate 320 g/ha) [%] | pre-emergence activity against ECHCG (ECHCG; application rate 80 g/ha) [%] | pre-emergence activity against DIGSA (DIGSA; application rate 80 g/ha, Table A12c) [%]
1 | COCc1nn(CC2CC2)cc1C(=O)N1CCCC1Cc1ccccc1F (racemic) [Example I-026] | 90 | 100 | 90 | 100 |  |  |  |  |  |  |  |  |  |  |  |  |  |  |  | 
2 | COCc1nn(CC#N)cc1C(=O)N1CCCC1Cc1ccccc1F (racemic) [Example I-029] | 90 | 100 | 100 | 90 | 90 |  |  |  |  |  |  |  |  |  |  |  |  |  |  | 
3 | COCc1c(C(=O)N2CCCC2Cc2c(F)cccc2Cl)cnn1C (single isomer, unassigned) [Example I-190] | 100 | 100 | 100 | 100 |  | 90 | 90 | 100 | 90 | 90 | 100 | 90 |  |  |  |  |  |  |  | 
4 | COC(=O)c1nn(C)cc1C(=O)N1CCCC1Cc1ccc(F)cc1F (racemic) [Example I-096] | 100 | 100 |  | 100 |  |  | 100 |  | 100 |  | 100 | 100 | 100 |  |  |  |  |  |  | 
5 | Cn1cc(C(=O)N2CCC2Cc2ccccc2F)c(COCC(F)F)n1 (racemic) [Example I-108] | 100 | 100 | 100 | 100 | 100 | 90 | 100 |  | 90 | 90 | 100 | 90 |  |  |  |  |  |  |  | 
6 | COCc1c(C(=O)N2CCCC2Cc2cc(F)ccc2F)cnn1C (single isomer, unassigned) [Example I-188] | 100 | 100 | 100 | 100 | 90 | 100 | 90 | 90 | 90 | 90 | 100 | 90 |  | 90 | 90 | 100 |  |  |  | 
7 | COCc1nn(CC2OCCO2)cc1C(=O)N1CCCC1Cc1ccccc1F (racemic) [Example I-028] | 90 | 90 | 90 | 100 |  |  |  |  |  |  |  |  |  |  |  |  |  |  |  | 
8 | COCc1c(C(=O)N2CCCC2Cc2ccc(F)cc2F)cnn1C (single isomer, unassigned) [Example I-119] | 90 | 100 | 100 | 100 |  | 100 |  | 90 |  |  |  | 90 |  |  |  | 90 |  |  |  | 
9 | COCc1nn(CC(OC)OC)cc1C(=O)N1CCCC1Cc1ccccc1F (racemic) [Example I-047] | 100 | 90 |  | 100 |  | 90 |  |  |  |  |  |  |  |  |  |  |  |  |  | 
10 | Cn1cc(C(=O)N2CCC2Cc2ccccc2Cl)c(COCC(F)F)n1 (racemic) [Example I-109] | 100 | 100 | 90 | 100 | 100 |  | 100 | 90 |  |  | 100 |  |  |  |  |  |  |  |  | 
11 | COCc1c(C(=O)N2CCCC2Cc2c(F)cccc2Cl)cnn1C (racemic) [Example I-151] | 100 | 100 | 90 | 100 |  | 90 |  |  | 90 |  |  |  |  |  |  |  |  |  |  | 
12 | CCn1cc(C(=O)N2CCCC2Cc2ccccc2F)c(COC)n1 (racemic) [Example I-027] | 90 | 90 | 100 |  |  | 90 | 90 | 90 | 90 |  |  |  |  | 90 |  | 100 |  |  |  | 
13 | COCc1nn(C(C)C)cc1C(=O)N1CCCC1Cc1ccccc1F (racemic) [Example I-025] | 90 | 100 | 90 | 100 | 90 | 90 |  | 90 |  |  | 100 |  |  |  |  |  |  |  |  | 
14 | COCCOCCn1cc(C(=O)N2CCCC2Cc2ccccc2F)c(COC)n1 (racemic) [Example I-030] | 90 | 90 | 90 | 100 | 90 |  |  |  |  | 90 | 90 |  |  |  |  |  |  |  |  | 
15 | COCCn1cc(C(=O)N2CCCC2Cc2ccccc2F)c(COC)n1 (racemic) [Example I-032] | 90 | 100 | 90 | 100 |  | 100 | 90 |  |  |  | 100 |  |  |  |  | 90 |  |  |  | 
16 | COCc1c(C(=O)N2CCCC2Cc2cccc(F)c2F)cnn1C (single isomer, unassigned) [Example I-137] | 100 | 100 | 100 | 100 | 90 | 100 | 90 | 100 |  | 100 | 100 | 90 |  |  |  |  | 90 | 90 | 90 | 100
17 | Cn1cc(C(=O)N2CCCC2Cc2ccccc2F)c(C2CCCO2)n1 (stereo not shown) [Example I-011] | 100 | 100 |  | 100 |  | 90 |  |  | 90 |  |  |  |  |  |  |  |  |  |  | 
